Measured values: paper PMC11768591 (Pharmaceutics, 2024)
Values after ≈ are worked out from the molar mass of the structure shown.

Experiments:
[1] = tested on: inflammation induced by carrageenan; experiment: Carrageenan-induced inflammation, paw volume by plethysmometer; assay type: in vivo, Male Wistar rats; conditions: rat
Procedure: (§1) The drugs were prepared fresh at the desired dose before administration. […] In the CFA-induced inflammation model, the rats were briefly anesthetized with isoflurane, via nose cone, titrated to the lowest dose necessary to achieve non-response to distal tail pinch. […] In both models, the paw volume was measured by a digital plethysmometer 7150 (Ugo Basile, Varese, Italy). To measure volume, the injected paw was marked around 1 cm above the tibiotarsal joint with an indelible pen. The paw was immersed up to the mark every time. […] In the […] studies, data were expressed as the average ± S.E.M. of 6 animals per experimental group. For the inflammation and hyperalgesia experiments, time courses of volume change (ΔV in μL) versus time (h) or paw withdrawal latency time (s) versus time (h) were generated, respectively. From the time courses, the area under the curve (AUC) was calculated using the trapezoidal rule as a measure of the duration and intensity of the effects observed with the different treatments. Then, AUC was employed to construct dose-response curves and to compare the different treatments.

[2] = tested on: CFA-induced thermal hyperalgesia; experiment: CFA-induced thermal hyperalgesia, paw withdrawal latency; assay type: in vivo, Male Wistar rats; conditions: rat, single oral dose 100 mg/kg
Procedure: (§2) CFA was administered at a concentration of 1 mg/mL and was previously dissolved in a mixture of paraffin oil (85%) and mannard monooleate (15%), whereas carrageenan was dissolved in an isotonic saline solution at 1%. The drugs were prepared fresh at the desired dose before administration.
(§3) The antihyperalgesic effect of the co-amorphous compound was evaluated using the thermal hyperalgesia model described by Dirig et al., with slight modifications. In this model, the rats were placed in acrylic observation chambers on a thin transparent glass plate maintained at a constant temperature of 30 °C. After a 30 min acclimatization period in the chambers, the animals received an intra-articular injection of 100 µL of CFA (1 mg/mL) or an intra-plantar injection of 50 µL of 1% carrageenan. Paw withdrawal latency to the thermal stimulus was measured before and 1, 2, 3, 4, 5 and 6 h after injection of CFA or carrageenan. To avoid tissue damage, a cutoff time of 20 s was used.
(§4) In the preclinic studies, data were expressed as the average ± S.E.M. of 6 animals per experimental group. […] From the time courses, the area under the curve (AUC) was calculated using the trapezoidal rule as a measure of the duration and intensity of the effects observed with the different treatments. […]

[3] = tested on: inflammation induced by Freund's complete adjuvant; experiment: CFA-induced inflammation, paw volume by plethysmometer; assay type: in vivo, Male Wistar rats; conditions: rat
Procedure: as §1

[4] = tested on: carrageenan-induced thermal hyperalgesia; experiment: Carrageenan-induced thermal hyperalgesia, paw withdrawal latency; assay type: in vivo, Male Wistar rats; conditions: rat, single oral dose 100 mg/kg
Procedure: as §2, §3, §4

[5] = phosphate buffer at pH 7.2; cited from earlier work
[6] = Solubility in distilled water at 37.5 °C (supersaturated, UV/Vis 420 nm); assay type: physicochemical
Procedure: (§5) Then, 200 µL aliquots were taken for 1, 5, 10, 30 and 60 min. […] The solubility tests were performed in triplicate.

[7] = Solubility in phosphate buffer pH 6.8 at 37.5 °C (supersaturated, UV/Vis 420 nm); assay type: physicochemical
Procedure: as §5

[8] = oral 100–320 mg/kg, 1 h before carrageenan
[9] = oral 100–320 mg/kg, 1 h before CFA
[10] = single oral dose 100 mg/kg (mixture: curcumin 51.4 mg/kg + L-arginine 48.6 mg/kg)

SMILES | effect on carrageenan-induced inflammation (paw volume change, AUC) [1, 8] | antihyperalgesic effect, CFA-induced thermal hyperalgesia (paw withdrawal latency) [2] | effect on CFA-induced inflammation (paw volume change, AUC) [3, 9] | antihyperalgesic effect, carrageenan-induced thermal hyperalgesia (paw withdrawal latency) [4] | half-life in solution [5] | solubility in distilled water ([6]; after 60 min) | solubility at 1 min ([6]; distilled water, water, thermodynamic from solid, after 1 min) | solubility at 60 min ([7]; pH 6.8, after 60 min) | solubility at 1 min ([7]; pH 6.8, aqueous buffer, thermodynamic from solid, after 1 min) | effect on carrageenan-induced inflammation (paw volume change, AUC) [1, 10] | effect on CFA-induced inflammation (paw volume change, AUC) [3, 10]
N=C(N)NCCC[C@H](N)C(=O)O [L-arginine] | failed to reverse the inflammatory effects | not curcumin or L-arginine, significantly increased the latency time | failed to reverse the inflammatory effects | antinociceptive effects that were statistically different from the vehicle group | – | – | – | – | – | – | –
COc1cc(/C=C/C(=O)CC(=O)/C=C/c2ccc(O)c(OC)c2)ccc1O [curcumin] | failed to reverse the inflammatory effects | not curcumin or L-arginine, significantly increased the latency time | failed to reverse the inflammatory effects | antinociceptive effects that were statistically different from the vehicle group | around 10 min | 0.43 µg/mL (≈ 1.17 µM) | 0.03 µg/mL (≈ 0.0814 µM) | 3.75 µg/mL (≈ 10.2 µM) | 1.36 µg/mL (≈ 3.69 µM) | – | –
O=C(O)Cc1ccccc1Nc1c(Cl)cccc1Cl [diclofenac] | – | – | – | – | – | – | – | – | – | have anti-inflammatory effects | have anti-inflammatory effects
